{
  "source": "paper PMC6530997",
  "about": "“Asymmetry in catalysis by Thermotoga maritima membrane-bound pyrophosphatase demonstrated by a nonphosphorus allosteric inhibitor” (Science Advances, 2019)",
  "key": {"TmPPase [1]": {"target": "T1, TmPPase (Thermotoga maritima, UniProt Q9S5X0)", "T1 construct": "His; made in house; host or cells: Saccharomyces cerevisiae strain BJ1991", "T1 sequence (Q9S5X0 whole entry)": "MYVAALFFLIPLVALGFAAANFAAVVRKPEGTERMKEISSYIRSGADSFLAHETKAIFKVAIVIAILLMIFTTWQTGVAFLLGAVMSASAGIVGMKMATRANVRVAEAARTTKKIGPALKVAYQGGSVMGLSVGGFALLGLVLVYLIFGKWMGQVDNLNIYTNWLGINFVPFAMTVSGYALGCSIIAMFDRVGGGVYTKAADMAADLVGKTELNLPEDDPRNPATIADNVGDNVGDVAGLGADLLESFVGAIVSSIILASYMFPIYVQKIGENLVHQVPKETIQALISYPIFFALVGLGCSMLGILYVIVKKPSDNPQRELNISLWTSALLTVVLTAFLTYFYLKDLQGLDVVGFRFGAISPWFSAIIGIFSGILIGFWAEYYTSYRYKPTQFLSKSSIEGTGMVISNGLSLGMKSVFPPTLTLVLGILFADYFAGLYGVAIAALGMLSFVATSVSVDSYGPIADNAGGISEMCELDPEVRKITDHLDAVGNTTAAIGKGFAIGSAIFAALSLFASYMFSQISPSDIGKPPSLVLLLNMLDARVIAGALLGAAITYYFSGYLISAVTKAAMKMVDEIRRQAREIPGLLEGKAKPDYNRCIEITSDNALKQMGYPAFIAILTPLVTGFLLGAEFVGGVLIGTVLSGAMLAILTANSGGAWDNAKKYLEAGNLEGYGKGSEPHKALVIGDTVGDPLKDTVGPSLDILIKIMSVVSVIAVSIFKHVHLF", "experiment": "TmPPase activity inhibition, molybdenum blue 96-well plate assay", "type": "biochemical", "settings": "for IC50: purified TmPPase in DDM, 71°C, 2 min; for fold less active / weaker than ATC: IC50 relative to ATC; for activity against TmPPase (in words): SAR discussion", "source_text": "The screening process that led to the discovery of compound 1 (ATC) will be described in more detail elsewhere. Briefly, we tested compounds using a recently developed 96-well plate assay with TmPPase as a model system ([37]). The screening collections included compounds synthesized in our laboratories. The identification of ATC as an inhibitor was followed by the test of analogs 2 to 5. ATC and its analogs were initially developed for their antimicrobial, antiviral, and anticancer activities, as reported elsewhere ([38]).\n(§1) TmPPase activity, compound screening, and kinetic experiments were done using the molybdenum blue reaction method in a purified protein solubilized in DDM ([37]). Initial reaction rates of TmPPase were determined using PPi as the substrate and ATC as the inhibitor at varying concentrations. The concentration of MgCl2 and Na4PPi required to maintain 5 mM free Mg^2+ at pH 8.0 was approximated as described previously ([41]). The reaction was done in reaction buffer [60 mM tris-HCl (pH 8.0), 5 mM free Mg^2+, 100 mM KCl, and 10 mM NaCl] at 71°C for 2 min. We chose a 2-min reaction time as it still produces a reaction product in a linear range (fig. S7)."}, "TmPPase [2]": {"target": "T1, TmPPase", "experiment": "Kinetic analysis of ATC inhibition of PPi hydrolysis by TmPPase", "type": "biochemical", "procedure": "As ATC is a potent inhibitor, we further characterized its effect on the rate of substrate (PPi) hydrolysis using a range of ATC concentrations (0.0 to 12.0 μM). We performed the kinetic assay using PPi concentrations from 0 to 1714 μM at 71°C with a single-point measurement at 2 min (Fig. 4D), having shown that this is within the linear range for initial rates (fig. S7).\nThe model is a variant on that used by Artukka et al. ([23]) and is required as there is half-of-the-sites reactivity. The sum of squares when fitting the inhibition curves with an ATC monomer (i.e., n = 1 in Fig. 5) is 5268, and the SD of the residuals (Sy.x) is 4.3; when fitting an ATC dimer, the values are 855 and 1.8, respectively. […] This means that ATC binds as a dimer to TmPPase.\nas §1\nFor analysis, we used a variant of Artukka and co-workers’ method ([23]), which assumes that the two active sites in an mPPase dimer interact allosterically, with the addition of inhibitor binding to the two active sites (Fig. 5). E2 represents the dimeric enzyme, S is the substrate (Na4PPi), I is the inhibitor (ATC), and n is the number of ATC molecules bound to the enzyme. KS is a microscopic Michaelis-Menten constant, and kp is the per-site maximum rate for the substrate complex. α is the factor relating the binding of the first substrate molecule (KS) to the binding of the second, β is the factor relating the rate of hydrolysis of the E2S complex (kp) to that of the E2S2 complex, and KI1obs, KI2obs, and KI3obs are the observed inhibition constants for binding to the E2, E2S, and E2S2 complexes.\nFor the mechanism in Fig. 5 with n = 2 (i.e., only inhibitor dimers bind), the rate Eq. 1 ([42]) is v=(2kp+2βkp[S]/αKs)/2(1+[I]^2/(KI2obs)^2)+(Ks/[S])(1+[I]^2/(KI1obs)^2)+([S]/αKs)(1+[I]^2/(KI3obs)^2) (1) where [S] and [I] correspond to substrate and inhibitor concentrations, respectively, and the equilibrium and Michaelis-type constants are as in Fig. 5. The kinetic data were fit together to obtain all parameter values and their SEs by nonlinear regression as a function of inhibitor (0, 1.0, 2.0, 4.0, 8.0, and 12.0 μM) and substrate (0 to 1714 μM) concentrations using Prism 6.0 (GraphPad Software). Eliminating the KI1 terms had no effect on the overall quality of fit."}, "[3]": {"target": "PfPPase-VP1 (in membrane) (Plasmodium falciparum, UniProt Q8IKR1)", "sequence (Q8IKR1 entry or part of it)": "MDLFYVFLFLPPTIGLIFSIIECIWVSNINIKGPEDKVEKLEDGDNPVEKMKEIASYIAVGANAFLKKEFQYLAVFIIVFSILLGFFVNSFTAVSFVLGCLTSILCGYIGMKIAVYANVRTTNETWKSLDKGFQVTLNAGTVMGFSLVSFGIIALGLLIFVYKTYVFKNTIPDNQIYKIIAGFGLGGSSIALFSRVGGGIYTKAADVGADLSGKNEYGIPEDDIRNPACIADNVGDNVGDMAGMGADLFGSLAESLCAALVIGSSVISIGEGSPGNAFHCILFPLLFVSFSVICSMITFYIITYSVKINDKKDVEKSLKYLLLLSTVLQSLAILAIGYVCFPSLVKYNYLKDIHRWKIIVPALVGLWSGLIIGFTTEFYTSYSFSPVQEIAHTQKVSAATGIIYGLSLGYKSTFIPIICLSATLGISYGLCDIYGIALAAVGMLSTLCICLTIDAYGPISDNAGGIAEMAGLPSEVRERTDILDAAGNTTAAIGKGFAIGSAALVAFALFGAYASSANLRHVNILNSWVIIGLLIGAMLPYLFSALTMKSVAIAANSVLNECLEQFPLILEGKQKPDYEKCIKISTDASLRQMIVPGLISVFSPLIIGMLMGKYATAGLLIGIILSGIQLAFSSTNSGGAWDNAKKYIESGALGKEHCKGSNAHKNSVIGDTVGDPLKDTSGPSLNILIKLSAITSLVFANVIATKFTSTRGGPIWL", "experiment": "Inhibition of PfPPase-VP1 in isolated membranes", "type": "biochemical", "source_text": "(§2) Fig. S6. Effect of ATC on growth of P. falciparum and on PfPPase. (A) Inhibition effect of ATC on PfPPase-VP1 (in membrane) from P. falciparum expressed in insect cell baculovirus expression system (method and further analysis will be described in more detail elsewhere). ATC […]\n(§3) (B) ATC has no anti-plasmodial […]\n(§4) activity up to 100  µM. (C) Anti-plasmodial activity of artemisinin, as a positive control.\n(§5) (1 picture or pasted object on this page, not shown here)"}, "[4]": {"tested_on": "PfPPase-VP1 (in membrane)", "experiment": "Inhibition of PfPPase-VP1 in isolated membranes", "type": "biochemical", "settings": "PfPPase IC50 versus TmPPase IC50", "source_text": "as §2, §3, §4, §5"}, "[5]": {"tested_on": "Plasmodium falciparum strain 3D7", "experiment": "Anti-plasmodial activity assay (SYBR Green I, 72 h)", "type": "cell-based", "procedure": "Size-exclusion chromatography – Multi angle laser light scattering (SEC-MALLS) 50  µg of TmPPase purified in DDM with IDP (1 mM) and IDP+ATC (1 mM each) were run through a Superdex 200 10/300 GL equilibrated with a buffer containing 50 mM MES-NaOH pH 6.5, 50 mM KCl, 5 mM MgCl2, 2 mM DTT and 0.05% DDM using a HPLC-system (Shimadzu).\nThe eluted samples from the column were analysed using UV-absorbance, refractive index (Optilab rEX, Wyatt) and multi angle laser light scattering (miniDAWN TREOS, Wyatt) detectors and the enzyme molecular mass was calculated using ASTRA software (Wyatt).\nAnti-plasmodial activity assay\nFor the in vitro anti-plasmodial activity assay, Plasmodium falciparum strain 3D7 was maintained in culture as described previously (56). Briefly, parasites were cultured in O+ human erythrocytes at 5% haematocrit in RPMI-1640 medium supplemented with 0.5% Albumax II (Gibco, Carlsbad, CA, USA), 200 μM hypoxanthine (Sigma, St. Louis, MO, USA) and 20 μg ml-1 gentamycin (Gibco). […]\nFifty microliters of each dilution were mixed in a 96-well plate with 150 µl of 2% haematocrit of 0.5% parasitemia (ring stage). After 72 h incubation at 37 °C, the parasite growth was quantified using fluorescent SYBR Green I®-based assay as described (58). The half-maximal inhibitory concentration (IC50) of the test compound was assessed by non-linear regression in Prism 7 (GraphPad Software). […]"}, "TmPPase [6]": {"target": "T1, TmPPase", "experiment": "Kinetic analysis of ATC inhibition of PPi hydrolysis by TmPPase", "type": "biochemical", "settings": "PPi conc. 1721"}, "[7]": {"settings": "PfPPase-VP1 expressed in insect cell baculovirus system"}},
  "note": "Like-named read-outs stand apart in the source and are kept apart here.",
  "data": [
    {"smiles": "Nc1nc2ccc(CNC(=O)c3cc4ccccc4[nH]3)cc2s1", "note": "[ATC, N-[(2-amino-6-benzothiazolyl)methyl]-1H-indole-2-carboxamide]", "values": [
      {"measurement": "IC50", "setting": "TmPPase [1]", "result": 1.7, "unit": "µM"},
      {"measurement": "mode of inhibition", "setting": "TmPPase [2]", "result": "uncompetitive dimeric inhibitor"},
      {"measurement": "fold weaker binding to E2S2 than to E2S", "setting": "TmPPase [2]; KI3obs versus KI2obs", "result": "about 2.5 fold"},
      {"measurement": "Hill constant", "setting": "TmPPase [2]; PPi conc. 35", "result": 2.8},
      {"measurement": "Hill constant", "setting": "TmPPase [2]; PPi conc. 71", "result": 2.8},
      {"measurement": "Hill constant", "setting": "TmPPase [2]; PPi conc. 142", "result": 1.9},
      {"measurement": "Hill constant", "setting": "TmPPase [2]; PPi conc. 1071", "result": 2.2},
      {"measurement": "Hill constant", "setting": "TmPPase [2]; PPi conc. 1428", "result": 1.9},
      {"measurement": "Hill constant", "setting": "TmPPase [2]; PPi conc. not printed (line between 142 and 1071)", "result": 2.2},
      {"measurement": "Ki", "setting": "TmPPase [2]; binding to E2 (no substrate), data not shown, read-out: KI1 (mean value when included in the fit)", "result": "≥ 250", "unit": "µM"},
      {"measurement": "binding to E2 (in words)", "setting": "TmPPase [2]; enzyme without substrate", "result": "does not bind to E2 at concentrations we are able to achieve"},
      {"measurement": "Ki", "setting": "TmPPase [2]; observed inhibition constant for binding to the E2S2 complex, n = 2 (ATC dimer), read-out: KI3obs", "result": "3.18 ± 0.15", "unit": "µM"},
      {"measurement": "Ki", "setting": "TmPPase [2]; observed inhibition constant for binding to the E2S complex, n = 2 (ATC dimer), read-out: KI2obs", "result": "1.37 ± 0.09", "unit": "µM"},
      {"measurement": "Hill coefficient for ATC binding", "setting": "TmPPase [2]; substrate concentrations greater than 100 μM", "result": 2},
      {"measurement": "Hill coefficient", "setting": "TmPPase [2]; very low substrate concentrations (below 100 μM)", "result": 3},
      {"measurement": "IC50", "setting": "[3]; [7]", "result": 83.6, "unit": "µM"},
      {"measurement": "logIC50", "setting": "[3]; [7]", "result": 1.9},
      {"measurement": "IC50", "setting": "[3]; isolated P. falciparum membranes, preliminary studies", "result": "~80", "unit": "µM"},
      {"measurement": "fold lower than in T. maritima test system", "setting": "[4]", "result": "at least 40 fold"},
      {"measurement": "anti-plasmodial activity (in words)", "setting": "[5]; P. falciparum survival assays", "result": "did not show any anti-plasmodial activity"},
      {"measurement": "IC50", "setting": "[5]; Plasmodium falciparum, P. falciparum 3D7, 72 h, read-out: anti-plasmodial activity, highest concentration without activity", "result": "> 100", "unit": "µM"},
      {"measurement": "Hill constant", "setting": "TmPPase [6]", "result": 2.0}
    ]},
    {"smiles": "Nc1nc2ccc(CNC(=O)c3ccco3)cc2s1", "note": "[compound 4]", "values": [
      {"measurement": "fold less active / weaker than ATC", "setting": "TmPPase [1]", "result": "approximately 10 fold"}
    ]},
    {"smiles": "Nc1nc2ccc(CNC(=O)c3ccc[nH]3)cc2s1", "note": "[compound 5]", "values": [
      {"measurement": "fold less active / weaker than ATC", "setting": "TmPPase [1]", "result": "approximately 10 fold"}
    ]},
    {"smiles": "Nc1nc2ccc(CNC(=O)c3cc4cccc(Br)c4[nH]3)cc2s1", "note": "[compound 6]", "values": [
      {"measurement": "IC50", "setting": "TmPPase [1]", "result": 21.4, "unit": "µM"}
    ]},
    {"smiles": "Nc1nc2ccc(CNC(=O)c3nc4ccccc4[nH]3)cc2s1", "note": "[compound 9]", "values": [
      {"measurement": "activity against TmPPase (in words)", "setting": "TmPPase [1]", "result": "fully inactive"},
      {"measurement": "IC50", "setting": "TmPPase [1]", "result": "> 500", "unit": "µM"}
    ]},
    {"smiles": "Nc1nc2ccc(CNC(=O)c3cccs3)cc2s1", "note": "[compound 3]", "values": [
      {"measurement": "activity against TmPPase (in words)", "setting": "TmPPase [1]", "result": "inactive"},
      {"measurement": "IC50", "setting": "TmPPase [1]", "result": "> 500", "unit": "µM"}
    ]},
    {"smiles": "Nc1nc2ccc(CNC(=O)c3ccccc3)cc2s1", "note": "[compound 2]", "values": [
      {"measurement": "activity against TmPPase (in words)", "setting": "TmPPase [1]", "result": "inactive"},
      {"measurement": "IC50", "setting": "TmPPase [1]", "result": "> 500", "unit": "µM"}
    ]}
  ]
}
